Measured values published in the NIST ThermoML archive (doi:10.1021/je060271a).
± gives the expanded uncertainty stated by the source.

Conditions: 303.15 K, Liquid, Vibrating tube method

CCCCCC(=O)OCC(COC(=O)CCCCC)(COC(=O)CCCCC)COC(=O)CCCCC [pentaerythritol tetrahexanoate]
mass density (12760 kPa): 996.5 ± 1.2 kg/m3
mass density (12780 kPa): 996.4 ± 1.2 kg/m3
mass density (12799 kPa): 996.4 ± 1.2 kg/m3
mass density (12822 kPa): 996.5 ± 1.2 kg/m3
mass density (12861 kPa): 996.4 ± 1.2 kg/m3
mass density (12903 kPa): 996.4 ± 1.2 kg/m3
mass density (12922 kPa): 996.5 ± 1.2 kg/m3
mass density (12946 kPa): 996.6 ± 1.2 kg/m3
mass density (12965 kPa): 996.4 ± 1.2 kg/m3
mass density (12985 kPa): 996.5 ± 1.2 kg/m3
mass density (13005 kPa): 996.5 ± 1.2 kg/m3
mass density (13307 kPa): 996.6 ± 1.2 kg/m3
mass density (13327 kPa): 996.7 ± 1.2 kg/m3
mass density (13352 kPa): 996.8 ± 1.2 kg/m3
mass density (13373 kPa): 996.7 ± 1.2 kg/m3
mass density (13394 kPa): 996.7 ± 1.2 kg/m3
mass density (13419 kPa): 996.7 ± 1.2 kg/m3
mass density (13439 kPa): 996.8 ± 1.2 kg/m3
mass density (13465 kPa): 996.9 ± 1.2 kg/m3
mass density (13486 kPa): 996.8 ± 1.2 kg/m3
mass density (13507 kPa): 996.8 ± 1.2 kg/m3
mass density (13533 kPa): 996.8 ± 1.2 kg/m3
mass density (13554 kPa): 996.8 ± 1.2 kg/m3
mass density (13576 kPa): 996.7 ± 1.2 kg/m3
mass density (13598 kPa): 996.9 ± 1.2 kg/m3
mass density (13624 kPa): 996.9 ± 1.2 kg/m3
mass density (13645 kPa): 996.9 ± 1.2 kg/m3
mass density (13671 kPa): 997 ± 1.2 kg/m3
mass density (13693 kPa): 996.8 ± 1.2 kg/m3
mass density (13715 kPa): 996.9 ± 1.2 kg/m3
mass density (13737 kPa): 997 ± 1.2 kg/m3
mass density (13763 kPa): 997 ± 1.2 kg/m3
mass density (13786 kPa): 997 ± 1.2 kg/m3
mass density (13808 kPa): 997 ± 1.2 kg/m3
mass density (13835 kPa): 996.9 ± 1.2 kg/m3
mass density (13857 kPa): 997.1 ± 1.2 kg/m3
mass density (13880 kPa): 997 ± 1.2 kg/m3
mass density (13902 kPa): 997 ± 1.2 kg/m3
mass density (13929 kPa): 997 ± 1.2 kg/m3
mass density (13952 kPa): 997.1 ± 1.2 kg/m3
mass density (13975 kPa): 997.1 ± 1.2 kg/m3
mass density (14002 kPa): 997.2 ± 1.2 kg/m3
mass density (14025 kPa): 997 ± 1.2 kg/m3
mass density (14052 kPa): 997.1 ± 1.2 kg/m3
mass density (14098 kPa): 997.1 ± 1.2 kg/m3
mass density (14126 kPa): 997.1 ± 1.2 kg/m3
mass density (14149 kPa): 997.1 ± 1.2 kg/m3
mass density (14174 kPa): 997.2 ± 1.2 kg/m3
mass density (14198 kPa): 997.1 ± 1.2 kg/m3
mass density (14222 kPa): 997.2 ± 1.2 kg/m3
mass density (14250 kPa): 997.2 ± 1.2 kg/m3
mass density (14273 kPa): 997.2 ± 1.2 kg/m3
mass density (14301 kPa): 997.2 ± 1.2 kg/m3
mass density (14324 kPa): 997.3 ± 1.2 kg/m3
mass density (14348 kPa): 997.3 ± 1.2 kg/m3
mass density (14371 kPa): 997.4 ± 1.2 kg/m3
mass density (14400 kPa): 997.4 ± 1.2 kg/m3
mass density (14423 kPa): 997.3 ± 1.2 kg/m3
mass density (14447 kPa): 997.4 ± 1.2 kg/m3
mass density (14476 kPa): 997.4 ± 1.2 kg/m3
mass density (14499 kPa): 997.4 ± 1.2 kg/m3
mass density (14522 kPa): 997.3 ± 1.2 kg/m3
mass density (14545 kPa): 997.5 ± 1.2 kg/m3
mass density (14569 kPa): 997.4 ± 1.2 kg/m3
mass density (14596 kPa): 997.5 ± 1.2 kg/m3
mass density (14620 kPa): 997.5 ± 1.2 kg/m3
mass density (14643 kPa): 997.6 ± 1.2 kg/m3
mass density (14671 kPa): 997.4 ± 1.2 kg/m3
mass density (14695 kPa): 997.4 ± 1.2 kg/m3
mass density (14722 kPa): 997.4 ± 1.2 kg/m3
mass density (14746 kPa): 997.6 ± 1.2 kg/m3
mass density (14770 kPa): 997.6 ± 1.2 kg/m3
mass density (14798 kPa): 997.6 ± 1.2 kg/m3
mass density (14823 kPa): 997.5 ± 1.2 kg/m3
mass density (14847 kPa): 997.5 ± 1.2 kg/m3
mass density (14871 kPa): 997.6 ± 1.2 kg/m3
mass density (14900 kPa): 997.6 ± 1.2 kg/m3
mass density (15031 kPa): 997.7 ± 1.2 kg/m3
mass density (15056 kPa): 997.7 ± 1.2 kg/m3
mass density (15080 kPa): 997.7 ± 1.2 kg/m3
mass density (15110 kPa): 997.8 ± 1.2 kg/m3
mass density (15293 kPa): 997.8 ± 1.2 kg/m3
mass density (15647 kPa): 998.1 ± 1.2 kg/m3
mass density (15670 kPa): 998.2 ± 1.2 kg/m3
mass density (15694 kPa): 998.1 ± 1.2 kg/m3
mass density (15716 kPa): 998 ± 1.2 kg/m3
mass density (15743 kPa): 998.1 ± 1.2 kg/m3
mass density (15766 kPa): 998.1 ± 1.2 kg/m3
mass density (15789 kPa): 998 ± 1.2 kg/m3
mass density (15816 kPa): 998.1 ± 1.2 kg/m3
mass density (15838 kPa): 998.2 ± 1.2 kg/m3
mass density (15888 kPa): 998.2 ± 1.2 kg/m3
mass density (15911 kPa): 998.2 ± 1.2 kg/m3
mass density (15933 kPa): 998.3 ± 1.2 kg/m3
mass density (15961 kPa): 998.4 ± 1.2 kg/m3
mass density (15983 kPa): 998.3 ± 1.2 kg/m3
mass density (16011 kPa): 998.3 ± 1.2 kg/m3
mass density (16034 kPa): 998.3 ± 1.2 kg/m3
mass density (16056 kPa): 998.4 ± 1.2 kg/m3
mass density (16083 kPa): 998.3 ± 1.2 kg/m3
mass density (16106 kPa): 998.4 ± 1.2 kg/m3
mass density (16127 kPa): 998.2 ± 1.2 kg/m3
mass density (16149 kPa): 998.4 ± 1.2 kg/m3
mass density (16175 kPa): 998.4 ± 1.2 kg/m3
mass density (16197 kPa): 998.3 ± 1.2 kg/m3
mass density (16218 kPa): 998.4 ± 1.2 kg/m3
mass density (16244 kPa): 998.5 ± 1.2 kg/m3
mass density (16266 kPa): 998.4 ± 1.2 kg/m3
mass density (16288 kPa): 998.4 ± 1.2 kg/m3
mass density (16313 kPa): 998.4 ± 1.2 kg/m3
mass density (16335 kPa): 998.5 ± 1.2 kg/m3
mass density (16357 kPa): 998.5 ± 1.2 kg/m3
mass density (16384 kPa): 998.5 ± 1.2 kg/m3
mass density (16406 kPa): 998.7 ± 1.2 kg/m3
mass density (16427 kPa): 998.5 ± 1.2 kg/m3
mass density (16447 kPa): 998.5 ± 1.2 kg/m3
mass density (16471 kPa): 998.6 ± 1.2 kg/m3
mass density (16491 kPa): 998.5 ± 1.2 kg/m3
mass density (16512 kPa): 998.6 ± 1.2 kg/m3
mass density (16532 kPa): 998.5 ± 1.2 kg/m3
mass density (16557 kPa): 998.7 ± 1.2 kg/m3
mass density (16578 kPa): 998.7 ± 1.2 kg/m3
mass density (16599 kPa): 998.5 ± 1.2 kg/m3
mass density (16624 kPa): 998.6 ± 1.2 kg/m3
mass density (16644 kPa): 998.7 ± 1.2 kg/m3
mass density (16666 kPa): 998.7 ± 1.2 kg/m3
mass density (16687 kPa): 998.7 ± 1.2 kg/m3
mass density (16708 kPa): 998.5 ± 1.2 kg/m3
mass density (16732 kPa): 998.7 ± 1.2 kg/m3
mass density (16752 kPa): 998.7 ± 1.2 kg/m3
mass density (16772 kPa): 998.7 ± 1.2 kg/m3
mass density (16796 kPa): 998.7 ± 1.2 kg/m3
mass density (16840 kPa): 998.8 ± 1.2 kg/m3
mass density (16860 kPa): 998.9 ± 1.2 kg/m3
mass density (16880 kPa): 998.8 ± 1.2 kg/m3
mass density (16904 kPa): 998.8 ± 1.2 kg/m3
mass density (16924 kPa): 998.8 ± 1.2 kg/m3
mass density (16945 kPa): 998.9 ± 1.2 kg/m3
mass density (16966 kPa): 998.9 ± 1.2 kg/m3
mass density (16990 kPa): 998.8 ± 1.2 kg/m3
mass density (17010 kPa): 998.9 ± 1.2 kg/m3
mass density (17035 kPa): 999 ± 1.2 kg/m3
mass density (17056 kPa): 999 ± 1.2 kg/m3
mass density (17077 kPa): 999 ± 1.2 kg/m3
mass density (17098 kPa): 999 ± 1.2 kg/m3
